Source: patent US4661516A, “Diaminocyclohexane platinum complexes” (Research Corporation, priority 1984, dated 1987)

Assays:
[1] = system: Wild type L1210 leukemic cells; experiment: In vitro cytotoxicity, wild type L1210 leukemic cells (L1210/0); assay type: cell-based; conditions: L1210, 72 hours incubation
Experimental: Four ml of cell suspension (10^5 cells/ml) are added to culture tubes and the appropriate concentration (0.01, 0.1, 1 or 10 μg/ml final concentration) of drug added to the culture tubes. After 72 hours of incubation, the cell concentration of control and experimental cultures are determined with the aid of a Coulter Counter® Model ZBf and the percent inhibition calculated. […]

L1210 cells = experiment: In vivo anti-tumor activity, L1210, single i.p. injection; design: species or system BDF1 mice; conditions: single i.p.
Experimental: About 24 hours after inoculation of the cells, the mice were injected intraperitoneally with varying dosages of complexes of the present invention. […] Long term survival signifies that animals were alive 60 days after inoculation with L1210 cells.

L1210/0 leukemia cells = experiment: In vivo anti-tumor activity, L1210 (L1210/0), multiple i.p. doses; design: species or system BDF1 mice; conditions: for LTS: survivors/treated 50 days after treatment
Experimental: BDF1 mice were inoculated intraperitoneally with 10^6 L1210 cells. About 24 hours after inoculation of the cells, the mice were injected intraperitoneally with varying dosages of complexes of the present invention. Six mice were used for each dosage level in each experiment with an equal number of control mice inoculated with 10^6 L1210 cells and left untreated with a given complex. The results [%T/C=(survival time of treated animals/survival time of control animals)×100] are set forth below. Long term survival signifies that animals were alive 60 days after inoculation with L1210 cells.
The procedure of Example 16 was repeated except that the treated animals were injected with multiple doses of the complex as indicated below:
The anti-tumor activity of compound number 3 was evaluated against cells sensitive to (L1210/0) and resistant to (L1210/PDD) the standard platinum complex cis-diamminedichloroplatinum(II).
The following complexes were tested in vivo oncolytic activity following 3 i.p. injections (days 1, 5, 9) according to the protocol described in Examples 16 and 17.
BDF1 mice were innoculated intraperitoreally with 10^6 L1210 leukemia cells and treatment was begun on the next day (day 1). Two treatment schedules, i.e. single i.p. injection of the drug and i.p. injections on days 1, 5 and 9 according to the protocol described in Examples 16 and 17 were used.

[2] = 6.25 mg/kg i.p., days 1, 5, 9, 30 day observation period
[3] = 12.5 mg/kg i.p., days 1, 5, 9, 30 day observation period
[4] = 25 mg/kg i.p., days 1, 5, 9, 30 day observation period

| Compound | ID50 [1] [µg/mL] | % T/C (L1210 cells; 12.5 mg/kg) [%] | % T/C (L1210 cells; 25 mg/kg) [%] | % T/C (L1210 cells; 50 mg/kg) | % T/C (L1210 cells; 100 mg/kg) | also measured |
| --- | --- | --- | --- | --- | --- | --- |
| NC1CCCCC1N.NCC(=O)[O-].NCC(=O)[O-].O.[Pt+2] (stereo not drawn) [Compound 32, Cis-bis-glycinato(DACH)Pt(II).1H2 O] | 2.5 | 128 | 131 | 158% |  |  |
| NC1CCCCC1N.O.O.O=S(=O)([O-])CCO.O=S(=O)([O-])CCO.[Pt+2] (stereo not drawn) [Compound 13, cis-bis-isethionato(DACH)Pt(II).2H2 O] | 0.43 |  |  | Toxic |  | % T/C (L1210 cells; 5 mg/kg): 153%; % T/C (L1210 cells; 10 mg/kg): 180%; % T/C (L1210 cells; 20 mg/kg): 140%; animals died of apparent drug toxicity (L1210 cells; 20 mg/kg): 2/6; Long Term Survivors (L1210 cells; 20 mg/kg, alive 60 days after inoculation): 1/6 |
| NC1CCCCC1N.O=C([O-])[C@@H]1CCC[C@H]1C(=O)[O-].[Pt+2] (racemic) [Compound 27, trans-DL-1,2-cyclopentanedicarboxylato(DACH)Pt(II)] | 0.4 | 158 | 159 | 183% |  |  |
| NC1CCCCC1N.O=C([O-])[C@@H]1C[C@H]1C(=O)[O-].[Pt+2] [Compound 40, trans-1,2-cyclopropanedicarboxylato(DACH)Pt(II)] | 0.4 |  |  |  |  |  |
| NC1CCCCC1N.O.O=C([O-])C1CCCCC1.O=C([O-])C1CCCCC1.[Pt+2] [Compound 22, Cis-bis-cyclohexanecarboxylato(DACH)Pt(II).1H2 O] | 0.5 |  |  | 140% | 170% |  |
| NC1CCCCC1N.O.O=C([O-])C1CCCC1.O=C([O-])C1CCCC1.[Pt+2] (stereo not drawn) [Compound 25, Cis-bis-cyclopentanecarboxylato(DACH)Pt(II).1H2 O] | 0.3 | 161 | 178 | 163% |  | % T/C (L1210/0 leukemia cells; [2]): 202%; % T/C (L1210/0 leukemia cells; [3]): 246%; % T/C (L1210/0 leukemia cells; [4]): 253% |
| Cis-bis-cyclopentenecarboxylato(DACH)Pt(II).2H2 O [Compound 26] | 1.3 | 185 | 158 | 157% |  | % T/C (L1210/0 leukemia cells; [2]): 189%; % T/C (L1210/0 leukemia cells; [3]): 356%; LTS (L1210/0 leukemia cells; 12.5 mg/kg, days 1, 5, 9): 1/6; % T/C (L1210/0 leukemia cells; [4]): 300%; LTS (L1210/0 leukemia cells; 25 mg/kg, days 1, 5, 9): 1/6 |
| NC1CCCCC1N.O=C([O-])CN(CCO)CCO.O=C([O-])CN(CCO)CCO.[Pt+2] [Compound 34, Cis-bis-bicinato(DACH)Pt(II)] | 1.2 | 165 | 151 | 160% |  |  |
| NC1CCCCC1N.O.O=C([O-])CC1(CC(=O)[O-])CCCCC1.[Pt+2] [Compound 23, 1,1-cyclohexanediacetato(DACH)Pt(II).1H2 O] | 0.6 |  |  |  |  |  |
| NC1CCCCC1N.O.O=C([O-])C1CCCCN1.O=C([O-])C1CCCCN1.[Pt+2] (racemic) [Compound 18, cis-bis-DL-pipecolinato(DACH)Pt(II).1H2 O] | 0.44 | 145 | 180 | Toxic |  |  |
| NC1CCCCC1N.O.O.O=C([O-])C1=CC(O)C(O)C(O)C1.O=C([O-])C1=CC(O)C(O)C(O)C1.[Pt+2] (stereo not drawn) [Compound 10, cis-bis-shikimato(DACH)Pt(II).2H2 O] |  |  |  | 140% | 217% | % T/C (L1210/0 leukemia cells; 12.5 mg/kg, days 1,5,9): 139%; % T/C (L1210/0 leukemia cells; 25 mg/kg, days 1,5,9): 149%; % T/C (L1210/0 leukemia cells; 50 mg/kg, days 1,5,9): 222%; Long Term Survivors (L1210/0 leukemia cells; 50 mg/kg, days 1,5,9): 1/6; Long Term Survivors (L1210 cells; 100 mg/kg, alive 60 days after inoculation): 2/6 |
| NC1CCCCC1N.O.O=C1CC(C(=O)[O-])C(C(=O)[O-])O1.[Pt+2] (racemic) [Compound 12, DL-isocitratolactone(DACH)Pt(II).1H2 O] | 1.0 |  | 133 | 145% | Toxic | % T/C (L1210/0 leukemia cells; 25 mg/kg, days 1,5,9): 219%; % T/C (L1210/0 leukemia cells; 50 mg/kg, days 1,5,9): 165% |
| NC1CCCCC1N.O=C1OC(C(O)CO)C([O-])=C1O.O=C1OC(C(O)CO)C([O-])=C1O.[Pt+2] (stereo not drawn) [Compound 6, cis-bis-ascorbato(cis-DACH)Pt(II).5H2 O] |  |  |  | Toxic | Toxic | ID50 ([1]; 4320 min): 4.0 µg/mL |
| NC1CCCCC1N.O=C([O-])[C@@H]1CC[C@H]1C(=O)[O-].[Pt+2] [Compound 41, trans-1,2-cyclobutanedicarboxylato(DACH)Pt(II)] | 0.5 |  |  |  |  |  |
| NC1CCCCC1N.O.O=C([O-])C1CCN1.O=C([O-])C1CCN1.[Pt+2] [Compound 15, cis-bis-L-azetidinecarboxylato(DACH)Pt(II).1H2 O] | 3.6 | 157 | 148 | 161% | Toxic |  |
| NC1CCCCC1N.O.O.O=C([O-])C1CCCN1.O=C([O-])C1CCCN1.[Pt+2] [Compound 36, Cis-bis-L-prolinato(trans-R,R--DACH)Pt(II).2H2 O] | 0.8 | 179 | 212 | 149% |  | Long Term Survivors (LTS) (L1210 cells; 25 mg/kg): 1/6 |
| NC1CCCCC1N.O.O=C([O-])C1CC1.O=C([O-])C1CC1.[Pt+2] (stereo not drawn) [Compound 29, Cis-bis-cyclopropanecarboxylato(DACH)Pt(II).1H2 O] | 0.3 | 252 | 176 | 199% |  | LTS (L1210 cells; 12.5 mg/kg): 1/6; Long Term Survivors (LTS) (L1210 cells; 50 mg/kg, alive 60 days after inoculation): 1/6 |
| NC1CCCCC1N.O.O.O=C([O-])CNCC(=O)[O-].[Pt+2] [Compound 35, Iminodiacetato(trans-R,R--DACH)Pt(II).2H2 O] | 3.0 |  |  |  |  | Long Term Survivors (L1210/0 leukemia cells; Tables X and XI, days 1, 5 and 9, at maximal effective dose, alive 60 days after tumor inoculation): 2/6; Maximal Effective Dose (L1210/0 leukemia cells; Tables X and XI, i.p. on days 1, 5 and 9): 25 mg/kg; % T/C (L1210/0 leukemia cells; Tables X and XI, i.p. on days 1, 5 and 9, at maximal effective dose): 437% |
| NC1CCCCC1N.O=C([O-])C1CC(O)CN1.O=C([O-])C1CC(O)CN1.[Pt+2] (mixture of isomers) [Compound 17, cis-bis-L-hyroxyprolinato(DACH)Pt(II).1H2 O] | 2.7 |  | 160 | 170% | Toxic |  |
| Cis-bis-cyclohexenecarboxylato(DACH)Pt(II).1H2 O [Compound 24] | 1.0 |  | 132 | 165% | 105% |  |
| NC1CCCCC1N.O.O=C([O-])C1CCC1.O=C([O-])C1CCC1.[Pt+2] (stereo not drawn) [Compound 30, Cis-bis-cyclobutanecarboxylato(DACH)Pt.1H2 O] | 0.4 | 149 | 154 | 145% |  |  |
| NC1CCCCC1N.O.O=C([O-])C1(C(=O)[O-])CC1.[Pt+2] [Compound 20, cyclopropane-1,1-dicarboxylato(DACH)Pt(II).H2 O] | 0.41 |  |  |  |  |  |
| NC1CCCCC1N.O=S(=O)([O-])CCCl.O=S(=O)([O-])CCCl.[Pt+2] (stereo not drawn) [Compound 33, Cis-bis-chloroethanesulfonato(DACH)Pt(II).1H 2 O] | 0.3 | 188 | 144 | Toxic |  |  |
